Experimental data published in patent US10322131B2, “Hydroxyacid derivatives, a process for their preparation and pharmaceutical compositions containing them” (LES LABORATOIRES SERVIER, priority 2015, dated 2019).
Read-outs that look alike come from different tables or passages of the source.

Tests used:
Mcl-1 protein = Mcl-1 protein (Homo sapiens, UniProt Q07820); assay: Inhibition of Mcl-1 by the fluorescence polarisation technique; type: binding
Summary of the method: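 Competitive FP displacement of fluorescein-labelled peptide ligand (1 nM final) from Mcl-1 (5 nM final) in HEPES 10 mM, 150 mM NaCl, 0.05% Tween 20, pH 7.4, 5% DMSO final. Read after ~2 h at r.t.; IC50 from 11-point 4-parameter logistic fit of % mP reduction.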

H929 cells = assay: In vitro cytotoxicity (MTT) on H929 multiple myeloma tumour line; type: cell-based; conditions: Microculture Tetrazolium Assay
Method: The cytotoxicity studies were carried out on the H929 multiple myeloma tumour line.
The cells are distributed onto microplates and exposed to the test compounds for 48 hours.
The cell viability is then quantified by a colorimetric assay, the Microculture Tetrazolium Assay (Cancer Res., 1987, 47, 939-942).

[1] = fluorescence polarisation test, Fluorescein labelled ligand 1 nM, Mcl-1 protein 5 nM, ~2 hours at r.t., read-out: IC50 (M) Mcl-1 FP
[2] = Homo sapiens, NCI-H929, exposed 48 hours

Chain of Mcl-1 protein (Q07820 whole entry): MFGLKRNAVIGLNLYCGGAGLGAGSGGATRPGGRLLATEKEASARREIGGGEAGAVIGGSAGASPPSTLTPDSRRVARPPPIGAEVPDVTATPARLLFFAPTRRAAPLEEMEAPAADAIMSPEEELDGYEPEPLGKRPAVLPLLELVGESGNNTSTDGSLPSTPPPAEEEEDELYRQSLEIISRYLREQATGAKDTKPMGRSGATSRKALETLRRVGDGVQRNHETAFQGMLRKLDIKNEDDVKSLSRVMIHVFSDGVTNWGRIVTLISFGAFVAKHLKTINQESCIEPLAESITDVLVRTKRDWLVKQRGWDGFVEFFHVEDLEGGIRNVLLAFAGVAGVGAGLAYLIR

Compound | IC50 (Mcl-1 protein; [1]) | IC50 (H929 cells; [2]) | IC50 (Mcl-1 protein) | IC50 (H929 cells; exposed 48 hours)
Cc1c(-c2c(-c3ccc(F)cc3)sc3ncnc(OC(Cc4ccccc4OCc4ccnc(-c5ccccc5COCC(O)CO)n4)C(=O)O)c23)ccc(OCCN2CCN(C)CC2)c1Cl [Example 27, (2R)-2-{[(5Sa)-5-{3-chloro-2-methyl-4-[2-(4-methylpiperazin-1-yl)ethoxy]phenyl}-6-(4-fluorophenyl)thieno[2,3-d]pyrimidin-4-yl]oxy}-3-{2-[(2-{2-[(2,3-dihydroxypropoxy)methyl]phenyl}pyrimidin-4-yl)methoxy]phenyl}propanoic acid] | 2.2e-09 M | 13.9 nM | – | –
Cc1c(-c2c(-c3ccc(F)cc3)sc3ncnc(OC(Cc4ccccc4OCc4ccnc(-c5cccc(OP(=O)(O)O)c5)n4)C(=O)O)c23)ccc(OCCN2CCN(C)CC2)c1Cl [Example 28, (2R)-2-{[(5Sa)-5-{3-chloro-2-methyl-4-[2-(4-methylpiperazin-1-yl)ethoxy]phenyl}-6-(4-fluorophenyl)thieno[2,3-d]pyrimidin-4-yl]oxy}-3-[2-({2-[3-(phosphonooxy)phenyl]pyrimidin-4-yl}methoxy)phenyl]propanoic acid] | – | 48.4 nM | 4.15e-09 M | –
Cc1c(-c2c(-c3ccc(F)cc3)sc3ncnc(OC(Cc4ccccc4OCc4ccnc(-c5ccc(OP(=O)(O)O)cc5)n4)C(=O)O)c23)ccc(OCCN2CCN(C)CC2)c1Cl [Example 29, 4-[4-({2-[(2R)-2-carboxy-2-{[(5Sa)-5-{3-chloro-2-methyl-4-[2-(4-methylpiperazin-1-yl)ethoxy]phenyl}-6-(4-fluorophenyl)thieno[2,3-d]pyrimidin-4-yl]oxy}ethyl]phenoxy}methyl)pyrimidin-2-yl]phenyl phosphate] | – | 22.7 nM | 4.6e-09 M | –
Cc1c(-c2c(-c3ccc(F)cc3)sc3ncnc(OC(Cc4ccccc4OCc4ccnc(-c5cccc(OCCO)c5)n4)C(=O)O)c23)ccc(OCCN2CCN(C)CC2)c1Cl [Example 30, (2R)-2-{[(5Sa)-5-{3-chloro-2-methyl-4-[2-(4-methylpiperazin-1-yl)ethoxy]phenyl}-6-(4-fluorophenyl)thieno[2,3-d]pyrimidin-4-yl]oxy}-3-[2-({2-[3-(2-hydroxyethoxy)phenyl]pyrimidin-4-yl-}methoxy)phenyl]propanoic acid] | 4.5e-09 M | 3.6 nM | – | –
COCCOCCOc1ccc(-c2nccc(COc3ccccc3CC(Oc3ncnc4sc(-c5ccc(F)cc5)c(-c5ccc(OCCN6CCN(C)CC6)c(Cl)c5C)c34)C(=O)O)n2)cc1 [Example 31, (2R)-2-{[(5Sa)-5-{3-chloro-2-methyl-4-[2-(4-methylpiperazin-1-yl)ethoxy]phenyl}-6-(4-fluorophenyl)thieno[2,3-d]pyrimidin-4-yl]oxy}-3-{2-[(2-{4-[2-(2-methoxyethoxy)ethoxy]phenyl}pyrimidin-4-yl)methoxy]phenyl}propanoic acid] | 3.85e-09 M | 1.68 nM | – | –
Cc1c(-c2c(-c3ccc(F)cc3)sc3ncnc(OC(Cc4ccccc4OCc4ccnc(-c5ccc(OCCOCCO)cc5)n4)C(=O)O)c23)ccc(OCCN2CCN(C)CC2)c1Cl [Example 32, (2R)-2-{[(5Sa)-5-{3-chloro-2-methyl-4-[2-(4-methylpiperazin-1-yl)ethoxy]phenyl}-6-(4-fluorophenl)thieno[2,3d]-pyrimidin-4-yl]oxy}-3-{2-[(2-{4-[2-(2-hydroxyethoxy)ethoxy]phenyl}pyrimidin-4-yl)methoxy]phenyl}propanoic acid] | 1.53e-08 M | 1.68 nM | – | –
COCCOCCOCCOc1ccc(-c2nccc(COc3ccccc3CC(Oc3ncnc4sc(-c5ccc(F)cc5)c(-c5ccc(OCCN6CCN(C)CC6)c(Cl)c5C)c34)C(=O)O)n2)cc1 [Example 33, (2R)-2-{[(5Sa)-5-{3-chloro-2-methyl-4-[2-(4-methylpiperazin-1-yl)ethoxy]phenyl}-6-(4-fluorophenyl)thieno[2,3-d]pyrimidin-4-yl]oxy}-3-(2-{[2-(4-{2-[2-(2-methoxyethoxy)ethoxy]ethoxy}phenyl)pyrimidin-4-yl]methoxy}phenyl)propanoic acid] | 2.24e-08 M | 1.18 nM | – | –
Cc1c(-c2c(-c3ccc(F)cc3)sc3ncnc(O[C@H](Cc4ccccc4OCc4ccnc(-c5ccc(OCCN(C)C)cc5)n4)C(=O)O)c23)ccc(OCCN2CCN(C)CC2)c1Cl [Example 34, (2R)-2-{[(5Sa)-5-{3-chloro-2-methyl-4-[2-(4-methylpiperazin-1-yl)ethoxy]phenyl}-6-(4-flurophenyl)thieno[2,3-d]pyrimidin-4-yl]oxy}-3-{2-[(2-{4-[2-(dimethylamino)ethoxy]phenyl}pyrimidin-4-yl)methoxy]phenyl}propanoic acid] | 7.1e-09 M | – | – | 4.76 nM
Cc1c(-c2c(-c3ccc(F)cc3)sc3ncnc(OC(Cc4ccccc4OCc4ccnc(-c5cccc(OCC6COC(C)(C)O6)c5)n4)C(=O)O)c23)ccc(OCCN2CCN(C)CC2)c1Cl [Example 35, (2R) -2-{[(5Sa)-5-{3-chloro-2-methyl-4-[2-(4-methylpiperazin-1-yl)ethoxy]phenyl}-6-(4-fluorophenyl)thieno[2,3-d]pyrimidin-4-yl]oxy}-3-{2-[(2-{3-[(2,2-dimethyl-1,3-dioxolan-4-yl)methoxy]phenyl}pyrimidin-4-yl)methoxy]phenyl}propanoic acid] | 5.15e-09 M | 4.76 nM | – | –
Cc1c(-c2c(-c3ccc(F)cc3)sc3ncnc(OC(Cc4ccccc4OCc4ccnc(-c5cccc(COC(=O)NCCOCCOCCOCCO)c5)n4)C(=O)O)c23)ccc(OCCN2CCN(C)CC2)c1Cl [Example 36, (2R)-2-{[(5Sa)-5-{3-chloro-2-methyl-4-[2-(4-methylpiperazin-1-yl)ethoxy]phenyl}-6-(4-fluorophenyl)thieno[2,3-d]pyrimidin-4-yl]oxy}-3-[2-({2-[3-(15-hydroxy-3-oxo-2,7,10,13-tetraoxa-4-azapentadec-1-yl)phenyl]pyrimidin-4-yl}methoxy)phenyl]propanoic acid] | 4.65e-09 M | 75.9 nM | – | –
Cc1c(-c2c(-c3ccc(F)cc3)sc3ncnc(OC(Cc4ccccc4OCc4ccnc(-c5cccc(COC(=O)N6CCC(N7CCCCC7)CC6)c5)n4)C(=O)O)c23)ccc(OCCN2CCN(C)CC2)c1Cl [Example 37, (2R)-3-(2-{[2-(3-{[(1,4′-bipiperidin-1′-ylcarbonyl)oxy]methyl}phenyl)pyrimidin-4-yl]methoxy}phenyl)-2-{[(5Sa)-5-{3-chloro-2-methyl-4-[2-(4-methylpiperazin-1-yl)ethoxy]phenyl}-6-(4-fluorophenyl)thieno[2,3-d]pyrimidin-4-yl]oxy}propanoic acid] | 6.3e-09 M | 20.5 nM | – | –
Cc1c(-c2c(-c3ccc(F)cc3)sc3ncnc(OC(Cc4ccccc4OCc4ccnc(-c5cccc(OCCOCCOCCO)c5)n4)C(=O)O)c23)ccc(OCCN2CCN(C)CC2)c1Cl [Example 38, (2R)-2-{[(5Sa)-5-{3-chloro-2-methyl-4-[2-(4-methylpiperazin-1-yl)ethoxy]phenyl}-6-(4-fluorophenyl)thieno[2,3-d]pyrimidin-4-yl]oxy}-3-(2-{[2-(3-{2-[2-(2-hydroxyethoxy)ethoxy]ethoxy}phenyl)pyrimidin-4-yl]methoxy}phenyl)propanoic acid] | 2.8e-09 M | 2.76 nM | – | –
